Results reported in patent US20260216190A1, “TREATMENT OF HEMATOLOGICAL MALIGNANCIES WITH INHIBITORS OF MENIN” (Kura Oncology, Inc., priority 2018, published 2026).

Target: T1, menin-MLL interaction (Homo sapiens, UniProt O00255)
T1 sequence (O00255 1-610): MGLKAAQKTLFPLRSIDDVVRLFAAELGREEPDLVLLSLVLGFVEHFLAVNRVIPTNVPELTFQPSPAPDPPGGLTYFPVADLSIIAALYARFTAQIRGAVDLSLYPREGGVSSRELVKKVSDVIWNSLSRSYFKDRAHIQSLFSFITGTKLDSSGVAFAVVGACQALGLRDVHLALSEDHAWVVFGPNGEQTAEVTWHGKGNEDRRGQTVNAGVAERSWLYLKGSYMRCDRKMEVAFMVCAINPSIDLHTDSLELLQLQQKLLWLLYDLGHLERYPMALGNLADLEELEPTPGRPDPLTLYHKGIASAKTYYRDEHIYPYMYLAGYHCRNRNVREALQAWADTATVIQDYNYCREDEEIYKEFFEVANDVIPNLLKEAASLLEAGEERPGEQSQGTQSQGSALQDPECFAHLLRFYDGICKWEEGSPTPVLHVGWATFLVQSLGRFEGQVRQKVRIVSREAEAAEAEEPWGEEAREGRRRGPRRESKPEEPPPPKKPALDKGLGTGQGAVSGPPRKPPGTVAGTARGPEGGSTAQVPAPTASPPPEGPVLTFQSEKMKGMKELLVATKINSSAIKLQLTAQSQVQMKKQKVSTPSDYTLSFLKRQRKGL
Experiment: Fluorescence polarization (FP) competition assay
Type: binding
Conditions: read-out: Menin MLL 4-43 IC50

| IC50 | SMILES |
| --- | --- |
| < 50 nM | Cc1c(CN2CCC(Nc3ncnc4sc(CC(F)(F)F)cc34)CC2)ccc2c1cc(C#N)n2CC(C1CC1)N1CCN(S(C)(=O)=O)CC1 (centres unmarked) [Compound I-23] |
| 50 to 250 nM | COCCNS(=O)(=O)N1CCN([C@@H](C)Cn2c(C#N)cc3c(C)c(CN4CCC(Nc5ncnc6sc(CC(F)(F)F)cc56)CC4)ccc32)CC1 [Compound I-142] |
